These results are taken from patent publication US8389563B2, “C-substituted diindolylmethane compositions and methods for the treatment of multiple cancers” (The Texas A&M University System, priority 2000, dated 2013).

The structures appear in SMILES notation.

Data set [1] has as its target T1, PPARγ (Homo sapiens, UniProt P37231).
T1 construct: expressed in transfected cells; host or cells: MCF-7 breast cancer cells
T1 sequence (P37231 238-503 limits assumed): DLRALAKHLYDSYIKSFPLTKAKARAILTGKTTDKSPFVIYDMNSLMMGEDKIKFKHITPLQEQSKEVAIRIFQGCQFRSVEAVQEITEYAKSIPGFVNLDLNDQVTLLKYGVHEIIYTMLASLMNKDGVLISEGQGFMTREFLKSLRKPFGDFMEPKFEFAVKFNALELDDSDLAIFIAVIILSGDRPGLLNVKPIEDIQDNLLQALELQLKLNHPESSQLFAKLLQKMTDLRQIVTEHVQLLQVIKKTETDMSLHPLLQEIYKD
Description: pGAL4-PPARγ / pGAL45 luciferase reporter assay in MCF-7 breast cancer cells. The class given is cell-based. The conditions noted are these: 5 μM. The text has this: Peroxisome proliferator-activated receptor (PPAR) is a nuclear receptor that induces differentiation in multiple tissues and cell lines. Synthetic compounds that bind PPAR (inhibit growth, induce differentiation in multiple tumor cell lines, and inhibit mammary carcinogenesis in rodent models (Mueller et al., “Terminal differentiation of human breast cancer through PPAR” Mol. Cell. 1:465 470, 1998; Elstner et al., “Ligands for peroxisome proliferator-activated receptor gamma and retinoic acid receptor inhibit growth and induce apoptosis of human breast cancer cells in vitro and in BNX mice” Proc. Natl. Acad. Sci. USA 95:8806 8811, 1998; Brockman et al., “Activation of PPARγ leads to inhibition of anchorage independent growth of human colorectal cancer cells” Gastroenterology 115:2049 1055, 1998; Tontonoz et al., “Terminal differentiation of human lipsarcoma cells induced by ligands for peroxisome proliferator-activated receptor and the retinoid X receptor” Proc. Natl. Acad. Sci. USA 94:237 241, 1997; Suh et al., “A new ligand for the peroxisome proliferator-activated receptor-PPAR, GW7845, inhibits rat mammary carcinogenesis” Cancer Res. 59:56715673, 1999). […] Ligand activation of pGAL4-PPARγ is detected using a construct containing five tandem GAL4 response elements (pGAL45) linked to a luciferase reporter gene.

In data set [2] the test system is CYP1A1-dependent ethoxyresorufin O-deethylase (EROD) activity. Description: Induction of EROD activity in LnCAP prostate cancer cells. The class given is cell-based, human.
Description: (§1) Results illustrated below summarize the concentration-dependent induction of CYP1A1-dependent ethoxyresorufin O-deethylase (EROD) activity by DIM and TCDD in androgen-nonresponsive PC3 human prostate cancer cells (FIG. 12). […] We also investigated the induction of EROD activity in two additional androgen-responsive prostate cancer cell lines.
The test system of data set [3] is 22Rv1 human prostate cancer cells. Description: Proliferation of 22Rv1 prostate cancer cells. The class given is cell-based. To be noted: 1 nM TCDD.
Data set [4] relates to CYP1A1-dependent ethoxyresorufin O-deethylase (EROD) activity. Description: Induction of EROD activity in 22Rv1 prostate cancer cells. The conditions noted are these: treatment for 24 hrs; TCDD 0.1 to 10 nM.
Description: as §1
Data set [5] has the same test system. Description: Induction of EROD activity in PC3 prostate cancer cells.
Description: as §1

Regarding `CCCCC/C=C/C=C1/C(=O)C=C[C@@H]1C/C=C\CCCC(=O)O` [PGJ, 15-deoxy-γ^12,14-prostaglandin J2], the “Increase in reporter gene (luciferase) activity, pGAL4-PPARγ” value in data set [1] was determined as 2 fold.

With `Clc1cc2c(cc1Cl)Oc1cc(Cl)c(Cl)cc1O2` [TCDD, 2,3,7,8-tetrachlorodibenzo-p-dioxin], the “Induction of EROD activity in LnCAP cells” value in data set [2] is “significant induction of EROD activity”. The “Proliferation of 22Rv1 human prostate cancer cells” value in data set [3] is listed as “inhibited proliferation”. For the same compound, in data set [4], the “Induction of EROD activity in 22Rv1 cells” value is “induced EROD activity”. Also, the “Treatment time of maximal EROD induction in PC3 cells” value in data set [5] (10 nM TCDD) came out at 96 h. For the same compound, the “Induction of EROD activity in PC3 cells” value in data set [5] (10 μM DIM, 10 nM TCDD) was “induced EROD activity”. Also, the “Induction of EROD activity in PC3 cells after 24 hours” value in data set [5] (24 hours) is given as “minimal (but significant) induction”.
